Results: article PMC9481570, “A small molecule antagonist of SMN disrupts the interaction between SMN and RNAP II” (Nature Communications, 2022)

Biological target: T1, tandem Tudor domain (TTD) of UHRF1 (Homo sapiens, UniProt Q96T88)
T1 construct: UHRF1 (aa 126–285); His (N, cleaved yes); made in house; host or cells: E. coli BL21 (DE3) Codon plus RIL
Assay: Fluorescein polarization-based peptide displacement screen
Assay type: binding
Conditions: 2 mM compound, 8 μM UHRF1 TTD, 40 nM FITC-H3K9me3 peptide; hit = signal less than 50% of negative control
Procedure: A small molecule fragment library with 2040 compounds was screened against TTD of UHRF1 by fluorescein polarization-based peptide displacement assay according to previous reports. Briefly, the screening was performed in 10 μL at a protein concentration of 8 μM premixed with a 40 nM FITC-labeled H3K9me3 peptide (aa 1–25, Tufts University Core Services), and then adding a single concentration of 2 mM compound in a buffer of 20 mM Tris-HCl, pH 8.8, 50 mM NaCl, and 0.01% Triton X-100. The hits were further confirmed by dose response analysis with 1 mM as the highest concentration with 11 sequential 2-fold dilutions. All the assays were performed in duplicate in 384-well plates (Greiner, 784290), using the Synergy 4 microplate reader (BioTek), with an excitation wavelength of 485 nm and an emission wavelength of 528 nm. Data were corrected by background of the free labeled peptides and analyzed by GraphPad Prism version 5 software. […]
Tris -HCl, pH 8.8, 50 mM NaC l, and 0.01% Triton X - 100. […] All the assays were performed in duplicate in 384 -well plates (Greiner, 784290), usi ng the Synergy 4 microplate reader (BioTek), with an excitation wavelength of 485 nm and an emission wavelength of 528 nm. Data were corrected by background of the free labeled peptides and analyzed by GraphPad […]
Detection instrument and software Synergy 4 microplate reader (BioTek), GraphPad […]

T1 sequence (Q96T88 126-285): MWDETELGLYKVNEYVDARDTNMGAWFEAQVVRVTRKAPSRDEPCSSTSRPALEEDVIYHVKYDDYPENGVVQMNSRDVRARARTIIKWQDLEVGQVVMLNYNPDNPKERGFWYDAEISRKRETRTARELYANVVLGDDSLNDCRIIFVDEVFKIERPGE

Cn1c2c(c(=N)c3c1CCC3)CCC2 [Compound 1, 4-methyl-2,3,4,5,6,7-hexahydrodicyclopenta[b,e]pyridin-8(1H)-imine]
outcome of fragment screen: hit
